# From PMC6522510 (Nature Communications, 2019)
# Where two headings read alike, the source gives them in different places.
# Experiments:
# CHRF288-11 [1] = assay: Secondary dose-response HTS, Cell Titer Glo; format: cell-based, human; conditions: for EC50: Homo sapiens
# ML2 = assay: Secondary dose-response HTS, Cell Titer Glo; format: cell-based, human; conditions: for EC50: Homo sapiens
# CMK [2] = assay: Secondary dose-response HTS, Cell Titer Glo; format: cell-based, human; conditions: for EC50: Homo sapiens
# ML-2 = assay: cells; design: species or system AML cell lines (8); conditions: Homo sapiens, ML-2, 72 h, read-out: ML-2
# MV4-11 [3] = assay: Secondary dose-response HTS, Cell Titer Glo; format: cell-based, human; conditions: for EC50: Homo sapiens
# M07e [4] = assay: Secondary dose-response HTS, Cell Titer Glo; format: cell-based, human; conditions: for EC50: Homo sapiens, M-07e
# MOLM-13 [5] = assay: Secondary dose-response HTS, Cell Titer Glo; format: cell-based, human; conditions: for EC50: Homo sapiens
# CMS [6] = assay: Secondary dose-response HTS, Cell Titer Glo; format: cell-based, human; conditions: for EC50: Homo sapiens, HTS
# U937 [7] = assay: Secondary dose-response HTS, Cell Titer Glo; format: cell-based, human; conditions: for EC50: Homo sapiens, U-937
# MOLM-13 [8] = assay: cells; design: species or system AML cell lines (8); Secondary HTS, 10-point dose-response in triplicate, Cell Titer Glo viability, four-parameter fit EC50; conditions: Homo sapiens; 72 h cell viability; read-out: MOLM-13
# CMS [9] = assay: cells; design: species or system AML cell lines (8); conditions: 72 h, read-out: CMS
# U937 [10] = assay: cells; design: species or system AML cell lines (8); conditions: Homo sapiens, U-937, 72 h, read-out: U937
# CHRF288-11 [11] = assay: cells; design: species or system AML cell lines (8); conditions: 72 h, read-out: CHRF288-11
# M07e [12] = assay: cells; design: species or system AML cell lines (8); conditions: M-07e, 72 h, read-out: M07e
# MV4-11 [13] = assay: cells; design: species or system AML cell lines (8); conditions: Homo sapiens, MV4-11, 72 h, read-out: MV4-11
# CMK [14] = assay: cells; design: species or system AML cell lines (8); conditions: Homo sapiens, 72 h, read-out: CMK
# [15] = tested on: MLLr primary AML blast samples; assay: Ex vivo drug treatment of primary AML blasts on mesenchymal stromal cells; format: cell-based; conditions: Homo sapiens; primary blasts on MSC, 96 h, range over patient samples
# [16] = tested on: AMKL primary AML blast samples; assay: as above; format: cell-based; conditions: Homo sapiens; primary blasts on MSC, 96 h
# [17] = tested on: FLT3-ITD+ primary AML blast samples
# MV4-11 [18] = assay: cells; design: species or system AML cell lines (8); Secondary HTS, 10-point dose-response in triplicate, Cell Titer Glo viability, four-parameter fit EC50; conditions: Homo sapiens, MV4-11, 72 h, read-out: MV4-11
# CMS [19] = assay: cells; design: species or system AML cell lines (8); Secondary HTS, 10-point dose-response in triplicate, Cell Titer Glo viability, four-parameter fit EC50; conditions: 72 h, read-out: CMS
# CHRF288-11 [20] = assay: cells; design: species or system AML cell lines (8); Secondary HTS, 10-point dose-response in triplicate, Cell Titer Glo viability, four-parameter fit EC50; conditions: 72 h, read-out: CHRF288-11
# MOLM-13 [21] = assay: cells; design: species or system AML cell lines (8); Secondary HTS, 10-point dose-response in triplicate, Cell Titer Glo viability, four-parameter fit EC50; conditions: Homo sapiens, MOLM-13, 72 h, read-out: MOLM-13
# U937 [22] = assay: cells; design: species or system AML cell lines (8); Secondary HTS, 10-point dose-response in triplicate, Cell Titer Glo viability, four-parameter fit EC50; conditions: Homo sapiens, U-937, 72 h, read-out: U937
# M07e [23] = assay: cells; design: species or system AML cell lines (8); Secondary HTS, 10-point dose-response in triplicate, Cell Titer Glo viability, four-parameter fit EC50; conditions: M-07e, 72 h, read-out: M07e
# CMK [24] = assay: cells; design: species or system AML cell lines (8); Secondary HTS, 10-point dose-response in triplicate, Cell Titer Glo viability, four-parameter fit EC50; conditions: Homo sapiens, CMK, 72 h, read-out: CMK
# [25] = secondary high-throughput screen, ML-2
# [26] = secondary high-throughput screen, CMK, read-out: average effective concentration, CMK
# [27] = secondary high-throughput screen, MV4-11, read-out: average effective concentration, MV4-11
# [28] = secondary high-throughput screen, MOLM-13, read-out: average effective concentration, MOLM-13
# [29] = secondary high-throughput screen, CHRF288-11
# [30] = secondary high-throughput screen, CMK
# [31] = secondary high-throughput screen, MV4-11
# [32] = secondary high-throughput screen, […]
# [33] = secondary high-throughput screen, MOLM-13
# [34] = secondary high-throughput screen, CMS
# [35] = secondary high-throughput screen, U937
# [36] = secondary high-throughput screen, ML-2, read-out: average effective concentration, ML-2
# [37] = secondary high-throughput screen, M07e, read-out: average effective concentration, M07e
SMILES,EC50 (ML-2) [µM],EC50 (MOLM-13 [8]) [µM],EC50 (CMS [9]) [µM],EC50 (U937 [10]) [µM],EC50 (CHRF288-11 [11]) [µM],EC50 (M07e [12]) [µM],EC50 (MV4-11 [13]) [µM],EC50 (CMK [14]) [µM],also measured
O=C(O)CCCc1ccc(N(CCCl)CCCl)cc1 [CHLORAMBUCIL],> 10,–,–,–,–,–,–,–,"EC50 (CHRF288-11 [1]; HTS, secondary high-throughput screen, CHRF288-11, read-out: average effective concentration, CHRF288-11): 4.9 µM; average effective concentration, ML-2 (ML2; [25]): Inactive; EC50 (CMK [2]; [26]): 5.9 µM; EC50 (MV4-11 [3]; [27]): 8.4 µM; EC50 (M07e [4]; secondary high-throughput screen, […], read-out: average effective concentration, M07e): 6.9 µM; EC50 (MOLM-13 [5]; [28]): 10 µM; EC50 (CMS [6]; secondary high-throughput screen, CMS, read-out: average effective concentration, CMS): 7 µM; EC50 (U937 [7]; secondary high-throughput screen, U937, read-out: average effective concentration, U937): 6.1 µM"
O=P1(N(CCCl)CCCl)NCCCO1 (stereo not drawn) [CYCLOPHOSPHAMIDE],> 10,> 10,> 10,> 10,> 10,> 10,> 10,> 10,"average effective concentration, CHRF288-11 (CHRF288-11 [1]): Inactive; average effective concentration, ML-2 (ML2): Inactive; average effective concentration, CMK (CMK [2]): Inactive; average effective concentration, MV4-11 (MV4-11 [3]): Inactive; average effective concentration, M07e (M07e [4]): Inactive; average effective concentration, MOLM-13 (MOLM-13 [5]): Inactive; average effective concentration, CMS (CMS [6]): Inactive; average effective concentration, U937 (U937 [7]): Inactive"
CO[C@H]1C[C@@H]2CC[C@@H](C)[C@@](O)(O2)C(=O)C(=O)N2CCCC[C@H]2C(=O)O[C@H]([C@H](C)C[C@@H]2CC[C@@H](OCCO)[C@H](OC)C2)CC(=O)[C@H](C)/C=C(\C)[C@@H](O)[C@@H](OC)C(=O)[C@H](C)C[C@H](C)/C=C/C=C/C=C/1C [EVEROLIMUS],> 10,> 10,> 10,> 10,> 10,> 10,> 10,> 10,–
Cc1c(CN2CCN(C(=O)[C@H](C)O)CC2)sc2c(N3CCOCC3)nc(-c3cnc(N)nc3)nc12 [GDC-0980],> 10,> 10,> 10,> 10,> 10,> 10,> 10,–,EC50 (CMK [2]; [26]): 0.52 µM
O=P1(NCCCl)OCCCN1CCCl (stereo not drawn) [IFOSFAMIDE],> 10,> 10,> 10,> 10,> 10,> 10,> 10,> 10,–
Cc1oncc1C(=O)Nc1ccc(C(F)(F)F)cc1 [LEFLUNOMIDE],> 10,> 10,> 10,> 10,> 10,> 10,> 10,> 10,–
COC1=CC(=O)O[C@@H](/C=C/c2ccc3c(c2)OCO3)C1 [METHYSTICIN],> 10,> 10,> 10,> 10,> 10,> 10,> 10,> 10,"average effective concentration, CHRF288-11 (CHRF288-11 [1]; [29]): Inactive; average effective concentration, ML-2 (ML2; [25]): Inactive; average effective concentration, CMK (CMK [2]; [30]): Inactive; average effective concentration, MV4-11 (MV4-11 [3]; [31]): Inactive; average effective concentration, M07e (M07e [4]; [32]): Inactive; average effective concentration, MOLM-13 (MOLM-13 [5]; [33]): Inactive; average effective concentration, CMS (CMS [6]; [34]): Inactive; average effective concentration, U937 (U937 [7]; [35]): Inactive"
CCc1ccc(CCOc2ccc(CC3SC(=O)NC3=O)cc2)nc1 (stereo not drawn) [PIOGLITAZONE],> 10,> 10,> 10,> 10,> 10,> 10,> 10,> 10,–
"Cc1[nH]c2ccccc2c1CCNCc1ccc(/C=C/C(=O)NO)cc1 [Panobinostat, reference compound]",–,–,–,–,–,–,–,–,"EC50 (CHRF288-11 [1]; secondary HTS, 72 h, average of triplicate, read-out: EC50 CHRF288-11): 0.01 µM; EC50 (ML2; ML-2, secondary HTS, 72 h, average of triplicate, read-out: EC50 ML2): 0.01 µM; EC50 (ML2; [36]): 0.012 µM; EC50 (CMK [2]; CMK, 72 h, read-out: EC50 CMK): 0.003 µM; EC50 (CMK [2]; CMK, read-out: average effective concentration, CMK): 0.00285 µM; EC50 (MV4-11 [3]; MV4-11, secondary HTS, 72 h, average of triplicate, read-out: EC50 MV4-11): 0.13 µM; IC50 [15]: 0.0009 to 0.0033 µM; EC50 (M07e [4]; secondary HTS, 72 h, average of triplicate, read-out: EC50 M07e): 0.005 µM; EC50 (M07e [4]; [37]): 0.00464 µM; EC50 (MOLM-13 [5]; MOLM-13, secondary HTS, 72 h, average of triplicate, read-out: EC50 MOLM-13): 0.18 µM; EC50 (CMS [6]; 72 h, read-out: EC50 CMS): 0.03 µM; EC50 (CMS [6]; read-out: average effective concentration, CMS): 0.028 µM; EC50 (U937 [7]; secondary HTS, 72 h, average of triplicate, read-out: EC50 U937): 0.01 µM; IC50 [16]: 0.014 µM"
"CCOc1cc(C(C)(C)C)ccc1C1=N[C@@](C)(c2ccc(Cl)cc2)[C@@](C)(c2ccc(Cl)cc2)N1C(=O)N1CCN(CCCS(C)(=O)=O)CC1 [RG7112, reference compound]",–,–,–,–,–,–,–,–,EC50 (ML2; [36]): 6.8 µM; EC50 (MV4-11 [3]; [27]): 2.5 µM; IC50 [15]: 0.149 to 0.845 µM; EC50 (M07e [4]; [37]): > 10 µM; IC50 [17]: 0.077 to 0.952 µM; EC50 (MOLM-13 [5]; [28]): 0.29 µM
NC(=O)c1ncn([C@@H]2O[C@H](CO)[C@@H](O)[C@H]2O)n1 [RIBAVIRIN],> 10,> 10,> 10,> 10,> 10,–,> 10,> 10,EC50 (M07e [4]; [37]): 9.3 µM
Cn1c(COP(=O)(NCCBr)NCCBr)cnc1[N+](=O)[O-] [TH-302],> 10,> 10,> 10,> 10,> 10,> 10,> 10,> 10,"average effective concentration, CHRF288-11 (CHRF288-11 [1]; [29]): Inactive; average effective concentration, ML-2 (ML2; [25]): Inactive; average effective concentration, CMK (CMK [2]; [30]): Inactive; average effective concentration, MV4-11 (MV4-11 [3]; [31]): Inactive; average effective concentration, M07e (M07e [4]; [32]): Inactive; average effective concentration, MOLM-13 (MOLM-13 [5]; [33]): Inactive; average effective concentration, CMS (CMS [6]; [34]): Inactive; average effective concentration, U937 (U937 [7]; [35]): Inactive"
Cn1ncnc1[C@H]1c2n[nH]c(=O)c3cc(F)cc(c23)N[C@@H]1c1ccc(F)cc1 [Talazoparib],–,–,–,–,–,–,–,–,IC50 [17]: 1.98 to 2.46 µM
CC(=O)Nc1cccc(-n2c(=O)n(C3CC3)c(=O)c3c(Nc4ccc(I)cc4F)n(C)c(=O)c(C)c32)c1 [Trametinib],–,–,–,–,–,–,–,–,EC50 (MV4-11 [18]): > 10 µM; EC50 (CMS [19]): > 10 µM; EC50 (ML2; [36]): 0.001 µM; EC50 (CHRF288-11 [20]): > 10 µM; EC50 (MOLM-13 [21]): > 10 µM; IC50 [15]: 0.0016 to 1.47 µM; EC50 (U937 [22]): > 10 µM; EC50 (M07e [23]): > 10 µM; EC50 (CMK [24]): > 10 µM; IC50 [17]: 0.13 to 5.31 µM
"O=C(CCCCCCC(=O)Nc1ccccc1)NO [Vorinostat, reference compound]",–,–,–,–,–,–,–,–,EC50 (MV4-11 [3]; [27]): 0.79 µM; IC50 [17]: 0.304 to 2.89 µM
